Laboratory results as given in ChEMBL document CHEMBL1153660, “Synthesis and pharmacological properties of BW315c and other inotropic 2-arylimidazo[1,2-a]pyrazines” (Bioorg Med Chem Lett, 1993).
One block for each compound: values may come before it. The source made the active and inactive calls. No cut-off for these calls is given here.

Legend:
Canis familiaris [1] = test: In vivo 50% increase in left ventricular pressure in open chest dogs; type: functional; conditions: Canis lupus familiaris, Heart left ventricle
Cavia porcellus [2] = organism: Cavia porcellus; test: In vitro 50% increase in basal contractile force of paced guinea pig papillary muscle; type: functional, Muscle tissue
[3] = Ratio of ED50 (increased ventricular pressure) to ED30 (diastolic blood pressure); type: functional, Artery
Phosphodiesterase 3 = Phosphodiesterase 3 (Homo sapiens, UniProt Q14432+Q13370); test: Concentration of compound required for 50% inhibition of type III cAMP phosphodiesterase from dog ventricles, activity expressed as pIC50; type: protein assay, Canis lupus familiaris
Canis familiaris [4] = organism: Canis familiaris; test: 10% increase in heart rate in open chest dogs; type: functional; conditions: Canis lupus familiaris
Canis familiaris [5] = organism: Canis familiaris; test: 30% decrease in diastolic blood pressure in open chest dogs; type: functional; conditions: Canis lupus familiaris, Artery
Canis familiaris [6] = test: Time required for vasodilator response at 0.80 mg/kg dose; range 15-30; type: functional, Canis lupus familiaris; conditions: dose 0.8 mg/kg
Canis familiaris [7] = test: Time required for inotropic response at 0.80 mg/kg dose; range 20-30; type: functional, Canis lupus familiaris; conditions: dose 0.8 mg/kg
Canis familiaris [8] = test: Time required for inotropic response at 0.80 mg/kg dose; range 45-60; type: functional, Canis lupus familiaris; conditions: dose 0.8 mg/kg
Canis familiaris [9] = test: Time required for vasodilator response at 0.80 mg/kg dose; range 10-30; type: functional, Canis lupus familiaris; conditions: dose 0.8 mg/kg
Canis familiaris [10] = test: Time required for vasodilator response at 0.80 mg/kg dose; type: functional, Canis lupus familiaris; conditions: dose 0.8 mg/kg
Canis familiaris [11] = test: Time required for inotropic response at 0.80 mg/kg dose; type: functional, Canis lupus familiaris; conditions: dose 0.8 mg/kg
Canis familiaris [12] = test: Time required for vasodilator response at 0.80 mg/kg dose; range 2-15; type: functional, Canis lupus familiaris; conditions: dose 0.8 mg/kg
Cavia porcellus [13] = organism: Cavia porcellus; test: In vitro 50% increase in basal contractile force of paced guinea pig papillary muscle (insoluble); type: functional, organism-based; conditions: Muscle tissue
Canis familiaris [14] = test: Time required for inotropic response at 0.80 mg/kg dose; range 30-45; type: functional, Canis lupus familiaris; conditions: dose 0.8 mg/kg
Canis familiaris [15] = test: Time required for vasodilator response at 0.80 mg/kg dose; range 30-45; type: functional, Canis lupus familiaris; conditions: dose 0.8 mg/kg
Cavia porcellus [16] = organism: Cavia porcellus; test: In vitro 50% increase in basal contractile force of paced guinea pig papillary muscle (inactive); type: functional; conditions: Muscle tissue

Structure (SMILES): COc1cc(C(N)=O)ccc1-c1nc2cc[nH]cc-2n1
ED50 (Canis familiaris [1]): 0.01 mg/kg | pA50 (Cavia porcellus [2]): 4.43

Structure (SMILES): COc1cc([S+](C)[O-])ccc1-c1nc2c(OC)nccc2[nH]1 (stereo unspecified)
ED50 (Canis familiaris [1]): 0.13 mg/kg | pA50 (Cavia porcellus [2]): 3.91

Log IC50 (Phosphodiesterase 3): -4.5
Structure (SMILES): COc1cc([S+](C)[O-])ccc1-c1nc2cnccc2[nH]1 (stereo unspecified) [ISOMAZOLE]
ED50 (Canis familiaris [1]): 0.06 mg/kg | Ratio [3]: 0.32 | pA50 (Cavia porcellus [2]): 4.64 | ED10 (Canis familiaris [4]): 0.06 mg/kg | ED30 (Canis familiaris [5]): 0.19 mg/kg | Duration (Canis familiaris [6]): 15 min | Duration (Canis familiaris [7]): 20 min

Structure (SMILES): Cc1[nH]c(=O)c(C#N)cc1-c1ccncc1 [MILRINONE]
Duration (Canis familiaris [8]): 45 min | ED50 (Canis familiaris [1]): 0.02 mg/kg | Ratio [3]: 0.3 | Duration (Canis familiaris [9]): 10 min | ED10 (Canis familiaris [4]): 0.02 mg/kg | ED30 (Canis familiaris [5]): 0.06 mg/kg

Structure (SMILES): COc1cc(OS(C)(=O)=O)ccc1-c1nc2cc[nH]cc-2n1
ED50 (Canis familiaris [1]): 0.002 mg/kg | pA50 (Cavia porcellus [2]): <5

Structure (SMILES): COc1cc(C(N)=O)ccc1-c1cn2ccncc2n1
ED50 (Canis familiaris [1]): 0.02 mg/kg | Ratio [3]: 0.4 | pA50 (Cavia porcellus [2]): 4.68 | Duration (Canis familiaris [10]): <5 min | ED10 (Canis familiaris [4]): 0.02 mg/kg | ED30 (Canis familiaris [5]): 0.05 mg/kg | Duration (Canis familiaris [11]): >30 min

Structure (SMILES): COc1cc([S+](C)[O-])ccc1-c1cn2cccnc2n1 (stereo unspecified)
ED50 (Canis familiaris [1]): 2.4 mg/kg | pA50 (Cavia porcellus [2]): 4.63

Structure (SMILES): COc1cc(OS(C)(=O)=O)ccc1-c1cn2ccnc(OC)c2n1
Duration (Canis familiaris [8]): 45 min | ED50 (Canis familiaris [1]): 0.07 mg/kg | Ratio [3]: 1.2 | Duration (Canis familiaris [12]): 2 min | ED10 (Canis familiaris [4]): 0.05 mg/kg | ED30 (Canis familiaris [5]): 0.06 mg/kg | pA50 (Cavia porcellus [13]): Insoluble

Structure (SMILES): COc1cc(C(N)=O)ccc1-c1cn2ccnc(OC)c2n1
ED50 (Canis familiaris [1]): 0.06 mg/kg | Duration (Canis familiaris [14]): 30 min | Ratio [3]: 0.04 | ED10 (Canis familiaris [4]): 0.06 mg/kg | ED30 (Canis familiaris [5]): 0.15 mg/kg | Duration (Canis familiaris [15]): 30 min | pA50 (Cavia porcellus [13]): Insoluble

Structure (SMILES): COc1cc([S+](C)[O-])ccc1-c1nc2cccnc2[nH]1 (stereo unspecified) [SULMAZOLE]
ED50 (Canis familiaris [1]): 0.8 mg/kg | pA50 (Cavia porcellus [2]): 4.7 | Duration (Canis familiaris [10]): 30 min | ED10 (Canis familiaris [4]): 0.5 mg/kg | ED30 (Canis familiaris [5]): 1.25 mg/kg | Duration (Canis familiaris [11]): 30 min

Log IC50 (Phosphodiesterase 3): -5
Structure (SMILES): COc1cc([S+](C)[O-])ccc1-c1cn2ccncc2n1 (stereo unspecified)
ED50 (Canis familiaris [1]): 0.75 mg/kg | Ratio [3]: 25 | pA50 (Cavia porcellus [2]): 5.39 | Duration (Canis familiaris [10]): >90 min | ED10 (Canis familiaris [4]): 0.28 mg/kg | ED30 (Canis familiaris [5]): 0.03 mg/kg | Duration (Canis familiaris [11]): 5 min

Structure (SMILES): COc1cc(OS(C)(=O)=O)ccc1-c1cn2ccncc2n1
pA50 (Cavia porcellus [16]): inactive

Log IC50 (Phosphodiesterase 3): -4.4
Structure (SMILES): COc1cc([S+](C)[O-])ccc1-c1cn2ccnc(OC)c2n1 (stereo unspecified)
ED50 (Canis familiaris [1]): 0.09 mg/kg | Ratio [3]: 0.08 | pA50 (Cavia porcellus [2]): 4.82 | Duration (Canis familiaris [10]): 2 min | ED10 (Canis familiaris [4]): 0.11 mg/kg | ED30 (Canis familiaris [5]): 1.17 mg/kg | Duration (Canis familiaris [11]): 60 min
